Measured values as given in PubChem BioAssay AID2740 (NMMLSC, 2010).
Active and inactive are the calls of the source.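 Rule for the calls: active = compounds whose fitted half-maximal concentration for changing the GFP signal is at or below a set limit; inactive = the rest.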

experiment: TOR pathway RPL19A-GFP modulators, concentration series – cell-based, S. cerevisiae, flow cytometry, MLPCN hits, dose response (AID 2740);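 note: background is signal of the same compound in parental non-GFP s288c yeast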; settings: S. cerevisiae RPL19A-GFP strain, flow cytometry fluorescence, 3 h; at 33 µM (top of the series)

Q: For `CCc1ccc(/C=C/C(=O)c2cc(Br)ccc(=O)c2O)cc1`, which GFP fluorescence, lower = active (kMESF (background-subtracted)) is on record?
A: 40.6 (inactive)

Q: Which GFP fluorescence, lower = active (kMESF (background-subtracted)) does the source give for `Cc1ccc(O)c(N=Nc2nccs2)c1` here?
A: 32.1 (inactive)

Q: With `Cc1ccc(C(=O)NNC(=S)NC(=O)COc2ccccc2)cc1` as the compound, how does the GFP fluorescence, lower = active (kMESF (background-subtracted)) read?
A: 41.1 (inactive)

Q: With `c1ccc(-c2csc(Nc3cccnc3)n2)nc1` as the compound, how does the GFP fluorescence, lower = active (kMESF (background-subtracted)) read?
A: 36.5 (inactive)

Q: For `O=C1C(=O)c2ccccc2-c2ccccc21`, which GFP fluorescence, lower = active (kMESF (background-subtracted)) is on record?
A: 17.7 (inactive)

Q: With `CC(=O)Oc1oc(-c2ccccc2)nc1C=Nc1ccc(N(C)C)cc1` as the compound, how does the GFP fluorescence, lower = active (kMESF (background-subtracted)) read?
A: 41.6 (inactive)

Q: With `O=c1c2sc(-c3ccccc3)cc2nc2n1CCC2` as the compound, how does the GFP fluorescence, lower = active (kMESF (background-subtracted)) read?
A: 20.5 (inactive)

Q: For `O=C(Nc1nnc(-c2ccc(F)cc2)o1)c1cc(Cl)sc1Cl`, which GFP fluorescence, lower = active (kMESF (background-subtracted)) is on record?
A: 51.4 (inactive)

Q: Which GFP fluorescence, lower = active (kMESF (background-subtracted)) does the source give for `C=CCOc1cccc(C(=O)/C=C2/C(=O)Nc3ccccc32)c1` here?
A: 40.7 (inactive)

Q: Which GFP fluorescence, lower = active (kMESF (background-subtracted)) does the source give for `CCC(=O)Oc1oc(-c2ccccc2)nc1C=Nc1ccccc1OC` here?
A: 41.6 (inactive)

Q: For `Cc1ccc(C2=NOC(=O)/C2=C\c2ccc(C)o2)cc1`, which GFP fluorescence, lower = active (kMESF (background-subtracted)) is on record?
A: 22 (inactive)

Q: With `N/C(Cc1ccc(Cl)c(Cl)c1)=N\OC(=O)c1cccs1` as the compound, how does the GFP fluorescence, lower = active (kMESF (background-subtracted)) read?
A: 40.7 (inactive)

Q: With `C#CCOc1c(Br)cc(/C=C2/C(=O)ON=C2C)cc1OC` as the compound, how does the GFP fluorescence, lower = active (kMESF (background-subtracted)) read?
A: 32.9 (inactive)

Q: Which GFP fluorescence, lower = active (kMESF (background-subtracted)) does the source give for `O=C1c2ccccc2C(=O)N1OS(=O)(=O)c1ccccc1` here?
A: 43.2 (inactive)

Q: Which GFP fluorescence, lower = active (kMESF (background-subtracted)) does the source give for `Oc1ccc2ccccc2c1/C=N/Nc1nnc(-c2ncc[nH]2)c2ccccc12` here?
A: 4.23 (inactive)

Q: For `COC(=O)CCCC1=CC2=CC(=O)C(C)(OC(=O)CCc3ccccc3)C(=O)C2=CO1` (centres undefined), which GFP fluorescence, lower = active (kMESF (background-subtracted)) is on record?
A: 42.8 (inactive)

Q: For `O=C(Oc1oc(-c2ccco2)nc1C=Nc1ccccc1)c1ccoc1`, which GFP fluorescence, lower = active (kMESF (background-subtracted)) is on record?
A: 46.5 (inactive)

Q: With `Clc1cccc(CN2COc3c(cc(Cl)c4cccnc34)C2)c1` as the compound, how does the GFP fluorescence, lower = active (kMESF (background-subtracted)) read?
A: 36.5 (inactive)

Q: With `CC(C)C[C@]1(c2ccccc2)ON(c2ccccc2C(F)(F)F)C1=O` as the compound, how does the GFP fluorescence, lower = active (kMESF (background-subtracted)) read?
A: 36.6 (inactive)

Q: With `O=C(Oc1ccnc2cc(Cl)ccc12)N1CCOCC1` as the compound, how does the GFP fluorescence, lower = active (kMESF (background-subtracted)) read?
A: 37.6 (inactive)

Q: With `Cc1cc(C(=O)COC(=O)c2ccc[nH]c2=O)c(C)n1-c1ccccc1F` as the compound, how does the GFP fluorescence, lower = active (kMESF (background-subtracted)) read?
A: 28.1 (inactive)

Q: For `CCc1cccc2sc(N3CCN(C(=O)c4ccc([N+](=O)[O-])o4)CC3)nc12`, which GFP fluorescence, lower = active (kMESF (background-subtracted)) is on record?
A: 11.8 (inactive)

Q: Which GFP fluorescence, lower = active (kMESF (background-subtracted)) does the source give for `O=C1c2ccccc2C(=O)N1OS(=O)(=O)c1ccc(F)cc1` here?
A: 37.2 (inactive)

Q: With `O=c1cc(-c2ccccc2)cc(-c2ccccc2)n1O` as the compound, how does the GFP fluorescence, lower = active (kMESF (background-subtracted)) read?
A: 15.4 (inactive)

Q: With `O=C(O)/C=C/C(=O)c1ccc2c(c1)CCc1ccccc1-2` as the compound, how does the GFP fluorescence, lower = active (kMESF (background-subtracted)) read?
A: 16.8 (inactive)

Q: Which GFP fluorescence, lower = active (kMESF (background-subtracted)) does the source give for `O=[N+]([O-])c1ccc(-c2cn3nc(-c4ccccc4)c(-c4ccccc4)nc3n2)cc1` here?
A: 48.8 (inactive)

Q: Which GFP fluorescence, lower = active (kMESF (background-subtracted)) does the source give for `O=C(O)c1ccn2c(C(=O)c3ccccc3)c(-c3ccccc3)cc2c1` here?
A: 39.3 (inactive)

Q: With `Cc1cc(C)c(OCC(=O)Nc2nc(-c3ccccn3)cs2)c(C)c1` as the compound, how does the GFP fluorescence, lower = active (kMESF (background-subtracted)) read?
A: 39.3 (inactive)

Q: For `COc1ccc(Cl)cc1C(Nc1cccnc1)c1ccc2cccnc2c1O` (centres undefined), which GFP fluorescence, lower = active (kMESF (background-subtracted)) is on record?
A: 42.8 (inactive)

Q: For `O=C(COc1ccccc1)N1CCN(c2ncnc3c2cnn3-c2ccccc2)CC1`, which GFP fluorescence, lower = active (kMESF (background-subtracted)) is on record?
A: 37.1 (inactive)

Q: For `Nc1nc(N)c2nc(CNc3ccc(C(=O)NC(CCC(=O)O)C(=O)O)cc3)cnc2n1` (centres undefined), which GFP fluorescence, lower = active (kMESF (background-subtracted)) is on record?
A: 45.5 (inactive)

Q: Which GFP fluorescence, lower = active (kMESF (background-subtracted)) does the source give for `COc1cc(/C=C2/C(=O)c3cccc([N+](=O)[O-])c3C2=O)c(Br)cc1O` here?
A: 43.9 (inactive)

Q: Which GFP fluorescence, lower = active (kMESF (background-subtracted)) does the source give for `Cc1c(N2C(=O)/C(=C\c3ccccc3O)SC2=S)c(=O)n(-c2ccccc2)n1C` here?
A: 38.7 (inactive)

Q: With `O=C(CCS(=O)(=O)c1ccccc1)Nc1nc(-c2ccccn2)cs1` as the compound, how does the GFP fluorescence, lower = active (kMESF (background-subtracted)) read?
A: 37.8 (inactive)

Q: For `CN(C)c1ccc(N=Cc2nc(-c3ccccc3)oc2OC(=O)c2cccc(Cl)c2)cc1`, which GFP fluorescence, lower = active (kMESF (background-subtracted)) is on record?
A: 44.1 (inactive)

Q: With `COc1ccc(N2C(=O)CC(Sc3ncn[nH]3)C2=O)c(OC)c1` (centres undefined) as the compound, how does the GFP fluorescence, lower = active (kMESF (background-subtracted)) read?
A: 42.2 (inactive)

Q: With `Oc1c(C(Nc2nc3ccccc3s2)c2ccco2)ccc2cccnc12` (centres undefined) as the compound, how does the GFP fluorescence, lower = active (kMESF (background-subtracted)) read?
A: 43.4 (inactive)

Q: Which GFP fluorescence, lower = active (kMESF (background-subtracted)) does the source give for `COc1ccc(N2C(=O)C(Cl)=C(Nc3c(C)n(C)n(-c4ccccc4)c3=O)C2=O)cc1` here?
A: 39.8 (inactive)

Q: For `CC(=O)Oc1cccc(N2C(=O)c3cccc4c([N+](=O)[O-])ccc(c34)C2=O)c1`, which GFP fluorescence, lower = active (kMESF (background-subtracted)) is on record?
A: 39.5 (inactive)

Q: For `Cc1cc(C)c(S(=O)(=O)ON2C(=O)c3ccccc3C2=O)cc1C`, which GFP fluorescence, lower = active (kMESF (background-subtracted)) is on record?
A: 25.8 (inactive)

Q: Which GFP fluorescence, lower = active (kMESF (background-subtracted)) does the source give for `Cc1cccc(N=C2NC(=O)/C(=C/C=C/c3ccco3)S2)c1C` here?
A: 34.7 (inactive)

Q: Which GFP fluorescence, lower = active (kMESF (background-subtracted)) does the source give for `O=C(c1ccc([N+](=O)[O-])o1)N1CCN(c2nc3c(F)cc(F)cc3s2)CC1` here?
A: 31.7 (inactive)

Q: Which GFP fluorescence, lower = active (kMESF (background-subtracted)) does the source give for `Cc1ccc(/C=N/Nc2ncc(Cl)cc2Cl)s1` here?
A: 43.1 (inactive)

Q: Which GFP fluorescence, lower = active (kMESF (background-subtracted)) does the source give for `CC1(c2ccccc2)ON(c2ccccc2C(F)(F)F)C1=O` (centres undefined) here?
A: 40 (inactive)

Q: Which GFP fluorescence, lower = active (kMESF (background-subtracted)) does the source give for `N=C1S/C(=C\c2ccco2)C(=O)N1c1nccs1` here?
A: 47.2 (inactive)

Q: For `CCN1C(=O)/C(=C\C(=O)c2cccs2)c2cc(Br)ccc21`, which GFP fluorescence, lower = active (kMESF (background-subtracted)) is on record?
A: 34.5 (inactive)

Q: Which GFP fluorescence, lower = active (kMESF (background-subtracted)) does the source give for `O=C(/C=C/c1cc(Br)ccc1O)c1ccco1` here?
A: 33.5 (inactive)

Q: With `CCC(C)/C(C)=N/NC(=O)c1ccc(COc2ccc(Cl)c(C)c2)cc1` (centres undefined) as the compound, how does the GFP fluorescence, lower = active (kMESF (background-subtracted)) read?
A: 44.9 (inactive)

Q: For `COC(=O)/C(=C/c1c[nH]c2ccccc12)[N+](=O)[O-]`, which GFP fluorescence, lower = active (kMESF (background-subtracted)) is on record?
A: 42.8 (inactive)

Q: For `O=C(/C=C/c1ccc(Cl)c([N+](=O)[O-])c1)c1cccnc1`, which GFP fluorescence, lower = active (kMESF (background-subtracted)) is on record?
A: 36.9 (inactive)

Q: Which GFP fluorescence, lower = active (kMESF (background-subtracted)) does the source give for `Cc1cccc(OCCN2CSC(=S)N(C)C2)c1` here?
A: 40.5 (inactive)

Q: With `O=C1NC(=O)N(CCc2ccc(F)cc2)C(=O)/C1=C/c1cccs1` as the compound, how does the GFP fluorescence, lower = active (kMESF (background-subtracted)) read?
A: 38.2 (inactive)

Q: For `CC(Oc1ccc2ccccc2c1)C(=O)NNC(=S)NC(=O)c1ccco1` (centres undefined), which GFP fluorescence, lower = active (kMESF (background-subtracted)) is on record?
A: 34.3 (inactive)

Q: For `COc1cccc(/C=N/Nc2ncc(C(F)(F)F)cc2Cl)c1O`, which GFP fluorescence, lower = active (kMESF (background-subtracted)) is on record?
A: 38.7 (inactive)

Q: For `COc1cc(CNC(=O)CCCCCCC(C)C)ccc1O`, which GFP fluorescence, lower = active (kMESF (background-subtracted)) is on record?
A: 48.5 (inactive)

Q: For `Cc1cc(C)c2c(c1)/C(=C/C(=O)c1ccc(Br)s1)C(=O)N2`, which GFP fluorescence, lower = active (kMESF (background-subtracted)) is on record?
A: 46.6 (inactive)

Q: For `CC[C@]1(c2ccccc2OC)ON(c2ccccc2C(F)(F)F)C1=O`, which GFP fluorescence, lower = active (kMESF (background-subtracted)) is on record?
A: 33.7 (inactive)

Q: With `COc1ccc(N2CCN(C(=O)c3ccccc3)CC2)c([N+](=O)[O-])c1` as the compound, how does the GFP fluorescence, lower = active (kMESF (background-subtracted)) read?
A: 47.4 (inactive)

Q: For `COc1cccc(C(=O)Nc2nnc(-c3ccc(Cl)cc3)o2)c1`, which GFP fluorescence, lower = active (kMESF (background-subtracted)) is on record?
A: 35.5 (inactive)
